Measured values reported in article PMC2978097, “Inhibiting α-Synuclein Oligomerization by Stable Cell-Penetrating β-Synuclein Fragments Recovers Phenotype of Parkinson's Disease Model Flies” (PLoS ONE, 2010).
Values belong to the compound of their own block, whether it stands above or below them. Where a SMILES comes first, the peptide text is derived from it. Where no end group is shown, it is not given here. [ ]: non-standard residue; d: D form.

Key:
α-syn monomers = biological target: T1, α-syn monomers (Homo sapiens, UniProt P37840); assay: Fluorescence anisotropy titration with α-syn monomers; format: binding; settings: fluorescent anisotropy, increasing amounts of α-syn monomers titrated into the peptide solution; Figure S1; read-out: affinity constant (Kd) towards α-syn monomers
T1 construct: made in house; host or cells: E. coli BL21 (pT7-7)
Experimental: To evaluate the binding of the peptides to α-syn, increasing amounts of α-syn monomers were titrated into a solution of the modified β-syn 36 peptide and anisotropy was determined (Figure S1). The affinity constant was determined to be ∼1 µM.
Supplementary file pone.0013863.s001.tif: Figure S1 The affinity of the modified β-syn 36 containing tryptophan instead of tyrosine towardsα-syn monomers was examined using fluorescent anisotropy. Kd = 1 µM. (0.02 MB TIF) Click here for additional data file.

[1] = In vitro peptide stability in mouse brain homogenate; format: in vitro ADME; settings: 20% peptide solution (1 mM in Tris pH 7.6) and 80% of 10% ICR mouse brain homogenate (0.5% Triton X-100), 37°C, two hours; C18 HPLC, UV 280 nm peak area vs sample in Tris buffer; Figure 5
Experimental: Peptides were dissolved to give a 1 mM solution in […] (pH 7.6). 120 µl of the peptide solution was diluted into a 10% freshly-made homogenate of mouse brain excluding the cerebellum (in 1× Tris buffer and 0.5% Triton X-100). A mixture containing 20% peptide solution and 80% mouse brain homogenate was incubated at 37°C with delicate shaking for two hours. The enzyme reaction was stopped by adding 0.1 M HCl solution, followed by denaturation of the protein using methanol and incubation at 20°C for one hour. The precipitated proteins were centrifuged at 29,000×g for 20 minutes at 4°C and the supernatant containing the peptide was concentrated under vacuum and separated using a C18 HPLC column. The area of the peak (UV absorbance at 280 nm) corresponding to the intact peptide was compared with an equivalent sample incubated in […].
Figure 5 Serum stability of β-syn 36 peptides. Brain extract of wild type ICR white mouse was incubated with the peptides β-syn 36 and retro-inverso β-syn 36 for two hours and loaded on a C18 column for serum stability analysis. (A) Spectra of the β-syn 36 peptide (blue) and β-syn 36 peptide with brain extract (red). […] (C) Quantification of the area under the peak. The area of the peptide in time ‘0’ was determined as 100%. […]

PC12 cells = assay: Toxicity towards cultured PC12 cells; format: cell-based; settings: concentrations up to 1 mM in the growing medium, twenty four hours; data not shown
Source text: Our best inhibitor candidate was the β-syn 36 peptide which inhibited both the soluble and insoluble fibrillar aggregates of α-syn.

Kd (α-syn monomers): 1 µM
Compound: CC(C)C[C@@H](NC(=O)[C@H](NC(=O)CN)C(C)C)C(=O)N[C@H](Cc1c[nH]c2ccccc12)C(=O)N[C@@H](C(=O)NCC(=O)N[C@H](CO)C(=O)N[C@H](CCCCN)C(=O)N[C@@H](C(=O)N[C@H](CCCNC(=N)N)C(=O)O)[C@H](C)O)C(C)C [Y39W β-syn 36D] (H-G[dV][dL][dW][dV]G[dS][dK][dT][dR]-OH)

stability in mouse brain homogenate (called serum stability) [1]: more stable than the unmodified β-syn 36
Compound: CC(C)C[C@@H](NC(=O)[C@@H](Cc1ccc(O)cc1)NC(=O)[C@H](NC(=O)CNC(=O)[C@@H](CO)NC(=O)[C@@H](CCCCN)NC(=O)[C@H](NC(=O)[C@H](N)CCCNC(=N)N)[C@H](C)O)C(C)C)C(=O)N[C@@H](C(=O)NCC(=O)O)C(C)C [retro-inverso β-syn 36] (H-[dR][dT][dK][dS]G[dV][dY][dL][dV]G-OH)

Compound: GVLYVGSKTR [β-syn 36]
toxicity towards cultured cells (PC12) (PC12 cells): no toxicity
